Test results reported in patent US4472304A, “(Amido)N-substituted bleomycins, salts thereof and process for preparation thereof” (Nippon Kayaku Kabushiki Kaisha, priority 1981, dated 1984).

Legend:
Bacillus subtilis = assay: Antimicrobial activity against Bacillus subtilis (agar plate-cylinder); assay type: cell-based; conditions: standard bleomycin A2 (copper-free) assumed 1,000 mcg potency/mg
Procedure: (§1) 2. ANT[…] MYC[…] ATCC 607 AND BACILLUS SUBTILIS
(§2) The antimicrobial activity was tested against the captioned test organisms by the method of agar plate-cylinder. The activity was recorded on the assumption that the activity of standard sample of bleomycin A2 (copper-free form) is 1,000 mcg poteney/mg.

[1] = system: Mycobacterium smegmatis ATCC 607; assay: Antimicrobial activity against Mycobacterium smegmatis ATCC 607 (agar plate-cylinder); assay type: cell-based; conditions: standard bleomycin A2 (copper-free) assumed 1,000 mcg potency/mg
Procedure: as §1, §2

[2] = CDF1/SLC male mice, s.c. once a day for 10 days, Behrens-Karber, daily dose
Procedure: From the mortality during the administration period, LD50 (daily dose) was determined by the method of Behrens-Karber.

pulmonary fibrosis = assay: Pulmonary toxicity (pulmonary fibrosis) in mice; conditions: for Incidence: Number of mice with pulmonary fibrosis (%) / Incidence: Number of mice with pulmonary fibrosis / Grade: Total score of pulmonary fibrosis/total number of samples / Grade: Total score of pulmonary fibrosis/total number of samples (%): ICR mice, 5 mg/kg i.p. once a day for 10 days; for Incidence: Number of mice with pulmonary fibrosis (%) / Incidence: Number of mice with pulmonary fibrosis: 5 weeks observation; for Incidence: Number of mice with pulmonary fibrosis: mice with fibrosis/total; for Grade: Total score of pulmonary fibrosis/total number of samples / Grade: Total score of pulmonary fibrosis/total number of samples (%): points 0, 1, 2, 4, 6; for Ratio (by comparison with "Bleomycin Complex"): versus Bleomycin Complex
HeLa S3 cells = assay: Growth inhibitory activity against cultured HeLa S3 cells; assay type: cell-based; conditions: 3 days
Procedure: 3. GROWTH INHIBITORY ACTIVITY AGAINST CULTURED HELA S3 CELLS
HeLa S3 cells were inoculated into a medium (MEM with 10% bovine serum) placed in a plastic petri dish. Two days thereafter, a bleomycin was added to the dish. After 3 days of breeding, the number of cells were counted. The percentage growth inhibition was calculated using the following equation:
Percentage inhibition (%)=100×(B-A)/(B-C) where A is the final number of cells after 3 days from the addition of test sample, B is the final number of cells in the control without addition of the test smaple, and C is the number of cells at the time of addition of the test sample.

| Compound | Antimicrobial potency of Cu-free compound against Bacillus subtilis (Bacillus subtilis) | Antimicrobial potency of Cu-free compound against Mycobacterium smegmatis ATCC 607 [1] | LD50 during administration period of 10 consecutive days [2] | Incidence: Number of mice with pulmonary fibrosis (%) (pulmonary fibrosis) | Incidence: Number of mice with pulmonary fibrosis (pulmonary fibrosis) | Grade: Total score of pulmonary fibrosis/total number of samples (pulmonary fibrosis) | Grade: Total score of pulmonary fibrosis/total number of samples (%) (pulmonary fibrosis) | Ratio (by comparison with "Bleomycin Complex") (pulmonary fibrosis) | 50% Growth inhibitory concentration of Cu-free compd. against cultured HeLaS3 cells (ID50) (HeLa S3 cells) |
| --- | --- | --- | --- | --- | --- | --- | --- | --- | --- |
| Cc1c(N)nc(C(CC(N)=O)NCC(N)C(=O)NCCCNC(C)c2ccccc2)nc1C(=O)NC(C(=O)NC(C)C(O)C(C)C(=O)NC(C(=O)NCCc1nc(-c2nc(C(=O)NCCCN(C)CCCN(Cc3ccc(OCc4ccccc4)c(OCc4ccccc4)c3)Cc3ccc(OCc4ccccc4)c(OCc4ccccc4)c3)cs2)cs1)C(C)O)C(OC1OC(CO)C(O)C(O)C1OC1OC(CO)C(O)C(OC(N)=O)C1O)c1cnc[nH]1 [Compound 64, 3-{N--methyl-N--[3-bis(m,p-dibenzyloxybenzyl)aminopropyl]amino}-propylamino-(amido)N--[3-((S)-1'-phenylethyl)aminopropyl]-BLM] | 23 mcg potency/mg | 115 mcg potency/mg | > 81.4 mg/kg/day | 0% | 0/9 | 0/27 | 0% | 0 | – |
| CCCCCCCCNC(=O)C(N)CNC(CC(N)=O)c1nc(N)c(C)c(C(=O)NC(C(=O)NC(C)C(O)C(C)C(=O)NC(C(=O)NCCc2nc(-c3nc(C(=O)NCCCN(C)CCCN(Cc4ccc(OCc5ccccc5)c(OCc5ccccc5)c4)Cc4ccc(OCc5ccccc5)c(OCc5ccccc5)c4)cs3)cs2)C(C)O)C(OC2OC(CO)C(O)C(O)C2OC2OC(CO)C(O)C(OC(N)=O)C2O)c2cnc[nH]2)n1 (stereo not shown) [Compound 65, 3-{N--methyl-N--[3-bis(m,p-dibenzyloxybenzyl)aminopropyl]amino}-propylamino-(amido)N--[n-octyl]-BLM] | 13 mcg potency/mg | 153 mcg potency/mg | > 75.7 mg/kg/day | 0% | 0/9 | 0/27 | 0% | 0 | – |
| 3-((S)-1'-phenylethylamino)propylamino-(amido)N--[1,6-dimethyl-heptyl]-BLM [Compound 32] | 298 mcg potency/mg | 39956 mcg potency/mg | – | – | – | – | – | – | 0.83 µg/mL |
| CCCCCCCCNC(=O)C(N)CNC(CC(N)=O)c1nc(N)c(C)c(C(=O)NC(C(=O)NC(C)C(O)C(C)C(=O)NC(C(=O)NCCc2nc(-c3nc(C(=O)NCCCN(C)CCCNCc4ccc(C#N)cc4)cs3)cs2)C(C)O)C(OC2OC(CO)C(O)C(O)C2OC2OC(CO)C(O)C(OC(N)=O)C2O)c2cnc[nH]2)n1 (stereo not shown) [Compound 62, 3-{N--methyl-N--[3-(p-cyanobenzylamino)propyl]amino}propylamino-(amido)N--[octyl]-BLM] | 381 mcg potency/mg | 49270 mcg potency/mg | – | 0% | 0/9 | 0/27 | 0% | 0 | – |
| CCCCCCCCNC(=O)C(N)CNC(CC(N)=O)c1nc(N)c(C)c(C(=O)NC(C(=O)NC(C)C(O)C(C)C(=O)NC(C(=O)NCCc2nc(-c3nc(C(=O)NCCC[N+](C)(C)CCCN(Cc4ccccc4)Cc4ccccc4)cs3)cs2)C(C)O)C(OC2OC(CO)C(O)C(O)C2OC2OC(CO)C(O)C(OC(N)=O)C2O)c2cnc[nH]2)n1 (stereo not shown) [Compound 53, 3-{N,N--dimethyl-N--[3-(dibenzylamino)propyl]amino}-propylamino-(amido)N--[n-octyl]-BLM] | 595 mcg potency/mg | 40703 mcg potency/mg | 15.0 mg/kg/day | 0% | 0/9 | 0/27 | 0% | 0 | – |
| Cc1c(N)nc(C(CC(N)=O)NCC(N)C(=O)NCCCNC(C)c2ccccc2)nc1C(=O)NC(C(=O)NC(C)C(O)C(C)C(=O)NC(C(=O)NCCc1nc(-c2nc(C(=O)NCCC[N+](C)(C)CCCN(Cc3ccccc3)Cc3ccccc3)cs2)cs1)C(C)O)C(OC1OC(CO)C(O)C(O)C1OC1OC(CO)C(O)C(OC(N)=O)C1O)c1cnc[nH]1 [Compound 52, 3-{N,N--dimethyl-N--[dibenzylamino)propyl]amino}-propylamino-(amido)N--[3-((S)-1'-phenyl)aminopropyl]-BLM] | 2372 mcg potency/mg | 21371 mcg potency/mg | 13.9 mg/kg/day | 0% | 0/9 | 0/27 | 0% | 0 | – |
| CCCCNCCCN(C)CCCNC(=O)c1csc(-c2csc(CCNC(=O)C(NC(=O)C(C)C(O)C(C)NC(=O)C(NC(=O)c3nc(C(CC(N)=O)NCC(N)C(=O)NC(C)C)nc(N)c3C)C(OC3OC(CO)C(O)C(O)C3OC3OC(CO)C(O)C(OC(N)=O)C3O)c3cnc[nH]3)C(C)O)n2)n1 (stereo not shown) [Compound 37, 3-[N--methyl-N--(3-n-butylaminopropyl)amino]propylamino-(amido)N--[isopropyl]-BLM] | 20048 mcg potency/mg | 13210 mcg potency/mg | – | 33% | 3/9 | 13/27 | 48% | 0.46 | – |
| CCCCCCCCNC(=O)C(N)CNC(CC(N)=O)c1nc(N)c(C)c(C(=O)NC(C(=O)NC(C)C(O)C(C)C(=O)NC(C(=O)NCCc2nc(-c3nc(C(=O)NCCC[N+](C)(CCCN(Cc4ccccc4)Cc4ccccc4)Cc4ccccc4)cs3)cs2)C(C)O)C(OC2OC(CO)C(O)C(O)C2OC2OC(CO)C(O)C(OC(N)=O)C2O)c2cnc[nH]2)n1 (stereo not shown) [Compound 48, 3-{N--methyl-N--benzyl-N--[3-dibenzylamino)proplyamino}-propylamino-(amido)N--[octyl]-BLM] | 130 mcg potency/mg | 2580 mcg potency/mg | – | 0% | 0/8 | 0/24 | 0% | 0 | – |
| Cc1c(N)nc(C(CC(N)=O)NCC(N)C(=O)NCCCN(C)CCCNCCc2ccc(Cl)cc2)nc1C(=O)NC(C(=O)NC(C)C(O)C(C)C(=O)NC(C(=O)NCCc1nc(-c2nc(C(=O)NCCCN(C)CCCNCCc3ccc(Cl)cc3)cs2)cs1)C(C)O)C(OC1OC(CO)C(O)C(O)C1OC1OC(CO)C(O)C(OC(N)=O)C1O)c1cnc[nH]1 (stereo not shown) [Compound 45, 3-{N--methyl-N--[3-(2-(p-chlorophenyl)ethyl)aminopropyl]amino}-propylamino(amido)N--{3-[N-- methyl-N--[3-(2-(p-chlorophenyl)-ethyl)aminopropyl]amino]propyl}-BLM] | 270 mcg potency/mg | 650 mcg potency/mg | – | 0% | 0/9 | 0/27 | 0% | 0 | – |
| Cc1c(N)nc(C(CC(N)=O)NCC(N)C(=O)NCCCNC(C)c2ccccc2)nc1C(=O)NC(C(=O)NC(C)C(O)C(C)C(=O)NC(C(=O)NCCc1nc(-c2nc(C(=O)NCCC[N+](C)(CCCN(Cc3ccccc3)Cc3ccccc3)Cc3ccccc3)cs2)cs1)C(C)O)C(OC1OC(CO)C(O)C(O)C1OC1OC(CO)C(O)C(OC(N)=O)C1O)c1cnc[nH]1 [Compound 47, 3-{N--methyl-N--benzyl-N--[3-(dibenzylamino)propylamino}-propylamino-(amido)N--[3-((S)-1'-phenylethyl)aminopropyl]-BLM] | 180 mcg potency/mg | 5900 mcg potency/mg | – | 0% | 0/8 | 0/24 | 0% | 0 | – |
| 4-Guanidinobutylamino-(amido)N--[1',6'-dimethylheptyl]-BLM [Compound 8] | 950 mcg potency/mg | 24880 mcg potency/mg | – | – | – | – | – | – | 0.62 µg/mL |
